Common to all, as to assay type: cell-based
In assay [1] the target is T1, Transient receptor potential cation channel subfamily M member 8 (Rattus norvegicus, UniProt Q8R455). The assay can be described thus: Antagonist activity against rat TRPM8 expressed in HEK293 cells assessed as inhibition of icilin-induced intracellular Ca2+ level pre-treated 5 mins before icilin stimulation by Fluo-4-AM dye based spectrofluorimetry.
The target in assay [2] is Transient receptor potential cation channel subfamily V member 1 (Homo sapiens, UniProt Q8NER1). Description: Antagonist activity against human TRPV1 expressed in HEK293 cells assessed as inhibition of capsaicin-induced intracellular Ca2+ level pre-treated 5 mins before capsaicin stimulation by Fluo-4-AM dye based spectrofluorimetry.
Chain of Transient receptor potential cation channel subfamily V member 1 (Q8NER1 whole entry): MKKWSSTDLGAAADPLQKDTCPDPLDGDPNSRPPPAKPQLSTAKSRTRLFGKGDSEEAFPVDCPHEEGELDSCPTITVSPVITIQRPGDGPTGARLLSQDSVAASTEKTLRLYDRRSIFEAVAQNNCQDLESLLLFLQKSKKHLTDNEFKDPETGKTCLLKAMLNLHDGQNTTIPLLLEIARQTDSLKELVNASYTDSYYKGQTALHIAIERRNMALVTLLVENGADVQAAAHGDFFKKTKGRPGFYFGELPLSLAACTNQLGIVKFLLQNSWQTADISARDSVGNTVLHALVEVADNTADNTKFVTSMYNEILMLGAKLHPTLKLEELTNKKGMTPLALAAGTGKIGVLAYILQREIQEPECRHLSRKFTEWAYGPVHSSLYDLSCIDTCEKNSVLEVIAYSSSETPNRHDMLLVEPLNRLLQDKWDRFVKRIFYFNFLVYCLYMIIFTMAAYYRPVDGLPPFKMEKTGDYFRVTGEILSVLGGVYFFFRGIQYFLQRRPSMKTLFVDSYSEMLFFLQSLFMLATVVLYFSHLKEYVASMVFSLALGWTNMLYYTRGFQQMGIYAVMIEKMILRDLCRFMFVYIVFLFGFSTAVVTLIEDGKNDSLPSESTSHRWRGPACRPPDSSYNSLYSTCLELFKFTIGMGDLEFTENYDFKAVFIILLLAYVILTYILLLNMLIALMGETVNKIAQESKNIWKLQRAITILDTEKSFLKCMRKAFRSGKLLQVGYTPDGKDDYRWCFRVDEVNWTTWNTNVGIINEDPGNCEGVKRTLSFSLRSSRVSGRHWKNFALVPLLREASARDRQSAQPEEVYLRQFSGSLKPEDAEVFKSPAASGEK
Assay [3] concerns the target Transient receptor potential cation channel subfamily M member 8 (Rattus norvegicus) (UniProt Q8R455). Description: Agonist activity at rat TRPM8 expressed in HEK293 cells assessed as induction of intracellular Ca2+ level by Fluo-4-AM dye based spectrofluorimetry relative to 4 uM ionomycin.
Assay [4] concerns the target T1, Transient receptor potential cation channel subfamily M member 8. The assay can be described thus: Agonist activity at rat TRPM8 expressed in HEK293 cells assessed as induction of intracellular Ca2+ level by Fluo-4-AM dye based spectrofluorimetry.

Our source for the IC50, Efficacy and EC50 values is ChEMBL document CHEMBL3421598, “Structure-activity relationships of the prototypical TRPM8 agonist icilin” (Bioorg Med Chem Lett, 2015).

Chain of Transient receptor potential cation channel subfamily M member 8 (Rattus norvegicus) (Q8R455 whole entry, looked up): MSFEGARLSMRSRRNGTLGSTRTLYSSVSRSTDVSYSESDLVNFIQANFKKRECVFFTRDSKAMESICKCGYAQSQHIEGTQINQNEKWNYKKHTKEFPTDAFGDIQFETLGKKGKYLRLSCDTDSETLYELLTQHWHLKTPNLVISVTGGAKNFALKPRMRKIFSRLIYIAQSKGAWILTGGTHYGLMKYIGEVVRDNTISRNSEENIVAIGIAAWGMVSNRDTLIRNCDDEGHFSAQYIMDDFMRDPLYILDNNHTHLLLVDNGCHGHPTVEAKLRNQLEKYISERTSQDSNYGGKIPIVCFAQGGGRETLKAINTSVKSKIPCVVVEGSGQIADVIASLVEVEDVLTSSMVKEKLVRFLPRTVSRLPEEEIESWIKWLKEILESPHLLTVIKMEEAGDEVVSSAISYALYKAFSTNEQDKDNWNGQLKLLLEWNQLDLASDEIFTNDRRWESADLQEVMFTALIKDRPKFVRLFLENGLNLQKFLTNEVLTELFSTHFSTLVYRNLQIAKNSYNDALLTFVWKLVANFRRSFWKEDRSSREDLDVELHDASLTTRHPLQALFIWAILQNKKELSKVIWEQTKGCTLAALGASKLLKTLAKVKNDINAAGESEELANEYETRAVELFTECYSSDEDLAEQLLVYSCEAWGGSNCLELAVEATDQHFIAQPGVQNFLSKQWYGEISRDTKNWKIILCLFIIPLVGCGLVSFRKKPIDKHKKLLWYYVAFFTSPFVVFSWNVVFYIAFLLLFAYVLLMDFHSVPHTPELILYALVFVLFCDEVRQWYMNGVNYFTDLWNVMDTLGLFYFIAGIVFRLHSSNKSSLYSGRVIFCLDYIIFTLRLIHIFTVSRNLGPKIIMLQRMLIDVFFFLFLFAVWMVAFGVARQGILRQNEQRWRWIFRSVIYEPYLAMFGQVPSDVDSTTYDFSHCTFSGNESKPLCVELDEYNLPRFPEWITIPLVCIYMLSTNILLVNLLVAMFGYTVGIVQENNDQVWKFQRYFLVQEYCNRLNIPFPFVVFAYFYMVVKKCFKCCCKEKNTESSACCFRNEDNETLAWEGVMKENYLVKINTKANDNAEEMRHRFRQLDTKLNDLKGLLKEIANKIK
T1 sequence (Q8R455 whole entry): as the sequence (Q8R455 whole entry, looked up) above

Consider `Cc1ccccc1NC(=O)/C=C/c1cccc([N+](=O)[O-])c1`, for which the figures for the IC50 in assay [1] and in assay [2] were 2 µM and more than 10 µM, respectively.

On to `CS(=O)(=O)Nc1cccc(N2CC=C(c3cccc([N+](=O)[O-])c3)NC2=O)c1`, for which the Efficacy in assay [3] was less than 10%. In assay [1], the IC50 (as a rule, the concentration needed to halve the response being measured) stood at 46.4 µM.

Consider `O=C1NC(c2cccc([N+](=O)[O-])c2)=CCN1c1cccc(O)c1`, for which the Efficacy in assay [3] was 62%. Also, in assay [4], the 50% effective concentration (EC50) (commonly the midpoint of the concentration-response curve) was found to be 1.7 µM. Also, the IC50 in assay [1] was 1.5 µM.

For `O=C1NC(c2cccc([N+](=O)[O-])c2)=CCN1c1cccc(CO)c1`, the Efficacy in assay [3] is less than 10%. Moreover, the IC50 in assay [1] worked out at 15.7 µM.

For `COc1cccc(N2CC=C(c3cccc([N+](=O)[O-])c3)NC2=O)c1`, the Efficacy in assay [3] is 57.5%. For the same molecule, the EC50 in assay [4] came out at 0.13 µM. The IC50 in assay [1] was found to be 0.24 µM.

In the case of `O=C1NC(c2ccc([N+](=O)[O-])cc2)=CCN1c1ccc(O)cc1`, the Efficacy in assay [3] was less than 10%. The IC50 in assay [1] was found to be 11.4 µM.

With `COc1ccccc1N1CC=C(c2cccc([N+](=O)[O-])c2)NC1=O`, the Efficacy in assay [3] was determined as 18.5%. In assay [4], the EC50 was determined as 1.1 µM. Further, the concentration for half-maximal inhibition (IC50) in assay [1] came out at 8.3 µM.

As to `Cc1ccc(O)c(N2CC=C(c3ccc([N+](=O)[O-])cc3)NC2=O)c1`, the Efficacy in assay [3] was less than 10%. Besides, the IC50 in assay [1] was found to be 16.9 µM.

For the molecule `O=C(/C=C/c1cccc([N+](=O)[O-])c1)Nc1cccc(Cl)c1`, the results for the IC50 in assay [1] and in assay [2] were 0.17 µM and 7.1 µM, respectively.

`O=C1NC2=C(CCc3c2cccc3[N+](=O)[O-])CN1c1ccccc1O`: the Efficacy in assay [3] was less than 10%. For the same molecule, the IC50 in assay [1] was found to be 3.1 µM.

As for `O=C1NC2=C(CCc3ccccc32)CN1c1ccccc1O`, the Efficacy in assay [3] was less than 10%. The half-maximal inhibitory concentration (IC50) in assay [1] was 5.7 µM.

Turning to `NC(=O)c1ccccc1N1CC=C(c2ccc([N+](=O)[O-])cc2)NC1=O`, in assay [3], the Efficacy is less than 10%. The IC50 in assay [1] was 11.4 µM.

For the molecule `O=C1NC(c2cccc([N+](=O)[O-])c2)=CCN1c1ccccc1CO`, in assay [3], the Efficacy was 20.4%. In assay [4], the EC50 was 5 µM. Moreover, in assay [1], the IC50 was 12 µM.

With `O=C(/C=C/c1cccc([N+](=O)[O-])c1)Nc1ccccc1O`, the concentration for half-maximal inhibition (IC50) in assay [1] is 1.9 µM; in assay [2], more than 10 µM.

With `O=C1NC(c2ccc([N+](=O)[O-])cc2)=CCN1c1cccc(O)c1`, the Efficacy in assay [3] is less than 10%. For the same molecule, the IC50 in assay [1] amounted to 10.9 µM.

Turning to `COc1cccc(NC(=O)/C=C/c2cccc([N+](=O)[O-])c2)c1`, the IC50 in assay [1] is 1.1 µM; in assay [2], 2.1 µM.

As to `NC(=O)c1ccccc1N1CC=C(c2cccc([N+](=O)[O-])c2)NC1=O`, in assay [3], the Efficacy stood at 47.2%. Also, in assay [4], the EC50 is 15.4 µM. In addition, in assay [1], the IC50 came to 8.3 µM.

As for `CCNC(=O)c1ccccc1N1CC=C(c2cccc([N+](=O)[O-])c2)NC1=O`, the Efficacy in assay [3] was less than 10%. Further, the IC50 in assay [1] is 22 µM.

Turning to `COc1cccc(N2CC=C(c3cccc([N+](=O)[O-])c3)N(C)C2=O)c1`, the Efficacy in assay [3] is less than 10%. The IC50 in assay [1] turned out to be 68.4 µM.

Turning to `COc1ccccc1NC(=O)/C=C/c1cccc([N+](=O)[O-])c1`, the values for the IC50 in assay [1] and in assay [2] were 1.8 µM and 10.7 µM, respectively.

Consider `CC(C)c1cccc(NC(=O)/C=C/c2cccc([N+](=O)[O-])c2)c1`, for which the figures for the IC50 in assay [1] and in assay [2] were 0.17 µM and 4.1 µM, respectively.

For `O=C(/C=C/c1cccc([N+](=O)[O-])c1)Nc1ccccc1I`, the IC50 in assay [1] was 1.05 µM; in assay [2], more than 10 µM.

In the case of `O=C1NC(c2cccc([N+](=O)[O-])c2)=CCN1c1ccccc1Br`, the Efficacy in assay [3] stood at 48.2%. Moreover, in assay [4], the EC50 was 0.62 µM. Further, the 50% inhibitory concentration (IC50) in assay [1] is 1.03 µM.

On to `O=C1NC(c2cccc([N+](=O)[O-])c2)=CCN1c1ccc(O)cc1`, for which the Efficacy in assay [3] was less than 10%. In assay [1], the half-maximal inhibitory concentration (IC50) worked out at 11.3 µM.

Take `CS(=O)(=O)Nc1ccccc1NC(=O)/C=C/c1cccc([N+](=O)[O-])c1`: the IC50 in assay [1] and in assay [2] was more than 10 µM each time.

Regarding `CC(C)c1ccccc1NC(=O)/C=C/c1cccc([N+](=O)[O-])c1`, the IC50 is 6.1 µM in assay [1] and more than 10 µM in assay [2].

`O=C(CCc1cccc([N+](=O)[O-])c1)Nc1cccc(I)c1`: the IC50 in assay [1] turned out to be 0.43 µM; in assay [2], 4.3 µM.

Consider `O=C1NC(c2cccc([N+](=O)[O-])c2)=CCN1c1ccccc1F`, for which the Efficacy in assay [3] was less than 10%. Further, the IC50 in assay [1] stood at 8.7 µM.

For the molecule `Cc1ccc(O)c(N2CC=C(c3cccc([N+](=O)[O-])c3)NC2=O)c1`, the Efficacy in assay [3] turned out to be 69.4%. Besides, the EC50 in assay [4] came to 0.14 µM. The IC50 in assay [1] is 0.26 µM.

As to `O=C1NC(c2ccc([N+](=O)[O-])cc2)=CCN1c1ccccc1O`, the Efficacy in assay [3] is less than 10%. The IC50 in assay [1] was 5.7 µM.

As to `CS(=O)(=O)Nc1cccc(-n2cc(-c3cccc([N+](=O)[O-])c3)[nH]c2=O)c1`, the Efficacy in assay [3] was less than 10%. In assay [1], the IC50 is 26 µM.

Turning to `COc1cccc(-n2cc(-c3cccc([N+](=O)[O-])c3)[nH]c2=O)c1`, the Efficacy in assay [3] was less than 10%. Further, in assay [1], the IC50 is 33.9 µM.

`O=C1NC(c2cccc([N+](=O)[O-])c2)=CCN1c1cccc(I)c1`: in assay [3], the Efficacy was 30.9%. In addition, in assay [4], the EC50 came out at 0.3 µM. The IC50 in assay [1] was found to be 0.47 µM.

With `O=C(/C=C/c1cccc([N+](=O)[O-])c1)Nc1ccccc1Cl`, the IC50 was 1.7 µM in assay [1] and more than 10 µM in assay [2].

Consider `O=C(/C=C/c1cccc([N+](=O)[O-])c1)Nc1cccc(O)c1`, for which the IC50 in assay [1] and in assay [2] was more than 10 µM each time.

Regarding `O=C(/C=C/c1cccc([N+](=O)[O-])c1)Nc1ccccc1CO`, the IC50 in assay [1] and in assay [2] was more than 10 µM in each case.

On to `O=C(/C=C/c1cccc([N+](=O)[O-])c1)Nc1cccc(CO)c1`, for which the values for the IC50 in assay [1] and in assay [2] were 6.5 µM and 6.1 µM, respectively.

With `Cc1cccc(NC(=O)/C=C/c2cccc([N+](=O)[O-])c2)c1`, the IC50 was 0.4 µM in assay [1] and more than 10 µM in assay [2].

For the molecule `O=C(/C=C/c1cccc([N+](=O)[O-])c1)Nc1cccc(Br)c1`, the IC50 in assay [1] was found to be 0.14 µM; in assay [2], 2.5 µM.

In the case of `CC(C)(C)c1cccc(NC(=O)/C=C/c2cccc([N+](=O)[O-])c2)c1`, the IC50 is 0.6 µM in assay [1] and more than 10 µM in assay [2].

With `COc1ccccc1N1CC2=C(NC1=O)c1ccccc1CC2`, the Efficacy in assay [3] was less than 10%. Moreover, the IC50 in assay [1] came out at 6.6 µM.

Turning to `O=C1NC(c2cccc([N+](=O)[O-])c2)=CCN1c1ccccc1I`, the Efficacy in assay [3] turned out to be 52.7%. Further, the EC50 in assay [4] amounted to 1.2 µM. The IC50 in assay [1] is 3.2 µM.

For `O=C1NC2=C(CCc3ccc([N+](=O)[O-])cc32)CN1c1ccccc1O`, the Efficacy in assay [3] is less than 10%. Moreover, the concentration for half-maximal inhibition (IC50) in assay [1] stood at 18.1 µM.

As to `O=C(/C=C/c1cccc([N+](=O)[O-])c1)Nc1cccc(I)c1`, the IC50 came out at 0.073 µM in assay [1] and 1.2 µM in assay [2].

Regarding `Cc1ccc(N2CC=C(c3cccc([N+](=O)[O-])c3)NC2=O)c(O)c1`, in assay [3], the Efficacy was found to be 46%. For the same molecule, in assay [4], the EC50 came to 1.2 µM. The IC50 in assay [1] was determined as 1.4 µM.

Regarding `COc1ccc(N2CC=C(c3cccc([N+](=O)[O-])c3)NC2=O)cc1`, the Efficacy in assay [3] is less than 10%. In addition, in assay [1], the IC50 amounted to 40 µM.

As for `CC1=C(c2cccc([N+](=O)[O-])c2)NC(=O)N(c2ccccc2O)C1`, in assay [3], the Efficacy was 10.8%. The half-maximal effective concentration (EC50) in assay [4] is more than 10 µM. Moreover, the IC50 in assay [1] was determined as 14.3 µM.

`O=c1[nH]c(-c2cccc([N+](=O)[O-])c2)cn1-c1ccccc1O`: the Efficacy in assay [3] is less than 10%. Moreover, the half-maximal inhibitory concentration (IC50) in assay [1] was 3.5 µM.

In the case of `O=C1NC(c2cccc([N+](=O)[O-])c2)=CCN1c1cccc(Cl)c1`, the Efficacy in assay [3] was determined as 45.6%. Besides, the EC50 in assay [4] is 1.5 µM. Moreover, in assay [1], the IC50 came out at 4.4 µM.

`O=C(/C=C/c1cccc([N+](=O)[O-])c1)Nc1ccccc1Br`: the IC50 in assay [1] is 1.5 µM; in assay [2] it was more than 10 µM.

Consider `O=C1NC(c2cccc([N+](=O)[O-])c2)=CCN1c1ccccc1O` [ICILLIN], for which, in assay [3], the Efficacy was 75.1%. The IC50 in assay [1] came out at 0.058 µM.

Take `O=C1NC(c2cccc([N+](=O)[O-])c2)=CCN1c1ccccc1Cl`: in assay [3], the Efficacy was found to be 41.8%. Moreover, in assay [4], the EC50 stood at 0.89 µM. Moreover, the half-inhibitory concentration (IC50) in assay [1] was 0.95 µM.

With `COc1ccccc1N1CC=C(c2ccc([N+](=O)[O-])cc2)NC1=O`, in assay [3], the Efficacy was less than 10%. Moreover, the IC50 in assay [1] stood at 11.4 µM.

Turning to `O=C1NC(c2cccc([N+](=O)[O-])c2)=CCN1c1cccc(Br)c1`, in assay [3], the Efficacy was determined as 47%. In addition, in assay [4], the EC50 stood at 0.6 µM. For the same molecule, the IC50 in assay [1] was 1.5 µM.
